Reference: patent US20100280050A1, “Piperidinylamino-Thieno[2,3-D] Pyrimidine Compounds for Treating Fibrosis” (priority 2007, published 2010)

Experiments:
[1] = tested on: liver fibrosis induced by monocrotaline (MCT); test: monocrotaline (MCT) model, hepatic fibrosis analysis; assay type: in vivo
Experimental: (§1) Compound A was assayed for effects on lung and liver lesions, as well as liver fibrosis in animals suffering from liver fibrosis induced by monocrotaline (MCT).
(§2) General Procedure: In this assay, animals were treated with MCT/vehicle, MCT with phosphate-buffered saline (PBS), or MCT with compound A. Following treatment, animals were sacrificed, and lung tissue was perfused and fixed in 10% neutral buffered formalin via the trachea. Lung and liver tissue was removed, sectioned and stained with hematoxylin-eosin. 41 liver and 41 lung slides were obtained for histologic evaluation. All slides were scored blindly without knowledge of experimental conditions. Lung and liver slides were evaluated according to the criteria listed below. Each parameter was subjectively evaluated and scored from 0-5, with 0 being no discernable lesions and 5 indicating the most severe lesions. Final scores for both the liver and lung lesions were calculated by averaging all parameters for each individual tissue.
(§3) • 1. Capsular fibrin • 2. Interlobular fibrosis • 3. Zone 1, 2, 3 necrosis • 4. Central vein, portal vein necrosis • 5. Sinusoidal spaces (hepatocytes dropout) • 6. Spaces of Disse • 7. Bile duct • 8. Bile caniliculi • 9. Kupffer cells • 10. Hepatocyte appositional surfaces • 11. Cell and nuclear size variation • 12. Cytoplasm variation
There were varying degrees of myofibroblast proliferation and collagen deposition surrounding portal tracts with occasional bridging into zones two and three. Bile duct proliferation was occasionally associated with areas of fibrosis.

[2] = target: more than 51 receptors including GPCRs, ion channels and receptor tyrosine kinases; test: panel of more than 51 receptors; assay type: binding; details: almost no affinity, read-out: Ki, more than 51 receptors tested
σ receptors = test: σ receptor functional assays (agonist activity); assay type: biochemical; details: very weak agonist
σ1 receptor = σ1 receptor (Homo sapiens, UniProt Q99720); test: σ1 receptor binding; details: moderate binding
dopamine D5 receptor = dopamine D5 receptor (Homo sapiens, UniProt P21918); test: dopamine D5 receptor activity; assay type: binding; details: no activity
[3] = tested on: Caspase 3/7 activity in rat activated hepatic stellate cells; test: Caspase-Glo 3/7 assay in rHSC; assay type: cell-based; details: FIG. 7
Experimental: Compound A was evaluated for activity in inducing Caspase 3/7 activity. Caspase 3 is involved in regulating apoptosis, and increases in Caspase 3 activity in this assay correlate to increased levels of apoptosis.
General Procedure: The assay was performed based on the following protocol: • 1. Passage rHSC at an appropriate density on a 96 well format and allow to adhere overnight. • 2. Treat cells with inhibitors for an appropriate length of time including the relevant controls. • 3. Allow both buffer and substrate to reach room temperature. • 4. Immediately prior to use, resuspend the substrate in 2.5 mL of buffer and mix thoroughly. • 5. Remove cells from incubator and allow the plates to cool to room temperature. • 6. Add Caspase-Glo® reagent at a 1:1 ratio (i.e. 100 μL to 100 μL media) and shake at 300 rpm for 30 sec. • 7. Incubate cells with Caspase-Glo® reagent for 2 h at room temperature protected from light. • 8. Transfer all media to white walled luciferase plates and determined luminescence using the MicroBeta luminometer. • 9. Caspase activity is expressed as fold-change relative to the untreated control.
Caspase-Glo® 3/7 reagent is available from Promega (Calif., USA). The Caspase-Glo® reagent contains a DEVD-caspase substrate which is selectively cleaved by caspase enzymes 3 and 7. […]

dopamine D1 receptor = dopamine D1 receptor (Homo sapiens, UniProt P21728); test: dopamine D1 receptor activity; assay type: binding; details: no activity
[4] = tested on: all other 5-HT receptor subtypes; test: affinity for the other 5-HT receptor subtypes; assay type: binding; details: 5-HT2B versus all other 5-HT subtypes, except 5-HT1A
[5] = tested on: human activated hepatic myofibroblasts (primary activated hepatic stellate cells); test: apoptosis of human activated hepatic myofibroblasts; assay type: cell-based; details: overnight incubation
Experimental: Compound A was tested on human activated hepatic myofibroblasts. The tested human cells were primary activated hepatic stellate cells isolated from normal human liver resected during removal of adjacent tumour tissue in patients with primary liver cancer. The cells were then cultured on plastic in full media and passaged at least 4 times to generate pure activated activated hepatic stellate cells, representing the major fibrogenic cell of the liver.

dopamine D2 receptor = dopamine D2 receptor (Homo sapiens, UniProt P14416); test: dopamine D2 receptor antagonism; assay type: biochemical; details: weak antagonist
[6] = tested on: rat activated hepatic myofibroblasts; test: acridine orange assay for morphological assessment of apoptosis; assay type: cell-based; details: 1 μM dose
Experimental: The compound 5-((4-(6-chlorothieno[2,3-d]pyrimidin-4-ylamino)piperidin-1-yl)methyl)-2-fluorobenzonitrile (hereinafter “compound A”), was evaluated for activity in promoting apoptosis of rodent and human activated hepatic myofibroblasts. The activity of compound A was compared against untreated cells, cells treated with dimethylsulfoxide, and cells treated with spiperone. Spiperone is a nonselective 5-HT2B antagonist. In the acridine orange assay for morphological assessment of apoptosis, compound A dose-dependently promotes elevated rates of apoptosis of rat activated hepatic myofibroblasts (40% of cells apoptotic with 1 μM dose). The results of the acridine orange assay are depicted in FIGS. 1-4.

[7] = tested on: lung lesions induced by monocrotaline (MCT); test: monocrotaline (MCT) model, lung lesion scoring; assay type: in vivo
Experimental: as §1, §2
• 1. Alveolar edema • 2. Congestion • 3. Intra-alveolar hemorrhage • 4. Alveolar macrophage infiltrate • 5. Degree of erythrophagocytosis • 6. Degree of hemosiderosis • 7. Thickening of alveolar septa • 8. Type II pneumocyte hyperplasia • 9. General arterial thickening • 10. Thickening of tunica intima • 11. Thickening of tunica media • 12. Thickening of tunica adventitia • 13. Degree of perivascular edema. • 14. Perivascular inflammatory cells (lymphs and plasma cells) • 15. Increased BALT • 16. Endothelial reactivity and prominence.

dopamine D3 receptor = dopamine D3 receptor (Homo sapiens, UniProt P35462); test: dopamine D3 receptor affinity; assay type: binding; details: moderate activity
σ2 receptor = σ2 receptor (Homo sapiens, UniProt Q5BJF2); test: σ2 receptor binding; details: moderate binding
[8] = tested on: liver lesions induced by monocrotaline (MCT); test: monocrotaline (MCT) model, liver lesion scoring; assay type: in vivo; details: for liver lesion severity score compared to Vehicle+PBS control: p<0.05
Experimental: as §1, §2, §3

dopamine D1 receptor, sequence (P21728 whole entry): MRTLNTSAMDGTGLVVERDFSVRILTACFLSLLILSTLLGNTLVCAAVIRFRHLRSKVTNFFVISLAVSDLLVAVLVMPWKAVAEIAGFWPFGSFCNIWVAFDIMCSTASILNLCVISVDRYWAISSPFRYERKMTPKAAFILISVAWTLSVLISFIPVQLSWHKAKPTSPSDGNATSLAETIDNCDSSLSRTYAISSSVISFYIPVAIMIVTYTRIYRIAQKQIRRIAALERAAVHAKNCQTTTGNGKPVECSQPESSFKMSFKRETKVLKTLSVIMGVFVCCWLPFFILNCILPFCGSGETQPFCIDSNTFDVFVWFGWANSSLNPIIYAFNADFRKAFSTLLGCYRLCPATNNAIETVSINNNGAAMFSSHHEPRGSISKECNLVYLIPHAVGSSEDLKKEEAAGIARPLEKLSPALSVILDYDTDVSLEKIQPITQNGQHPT
σ2 receptor, sequence (Q5BJF2 whole entry): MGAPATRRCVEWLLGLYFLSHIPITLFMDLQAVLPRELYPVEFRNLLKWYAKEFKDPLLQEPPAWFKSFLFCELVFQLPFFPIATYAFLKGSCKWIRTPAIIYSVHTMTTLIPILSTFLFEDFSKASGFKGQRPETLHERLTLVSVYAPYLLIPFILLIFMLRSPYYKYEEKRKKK
dopamine D5 receptor, sequence (P21918 whole entry): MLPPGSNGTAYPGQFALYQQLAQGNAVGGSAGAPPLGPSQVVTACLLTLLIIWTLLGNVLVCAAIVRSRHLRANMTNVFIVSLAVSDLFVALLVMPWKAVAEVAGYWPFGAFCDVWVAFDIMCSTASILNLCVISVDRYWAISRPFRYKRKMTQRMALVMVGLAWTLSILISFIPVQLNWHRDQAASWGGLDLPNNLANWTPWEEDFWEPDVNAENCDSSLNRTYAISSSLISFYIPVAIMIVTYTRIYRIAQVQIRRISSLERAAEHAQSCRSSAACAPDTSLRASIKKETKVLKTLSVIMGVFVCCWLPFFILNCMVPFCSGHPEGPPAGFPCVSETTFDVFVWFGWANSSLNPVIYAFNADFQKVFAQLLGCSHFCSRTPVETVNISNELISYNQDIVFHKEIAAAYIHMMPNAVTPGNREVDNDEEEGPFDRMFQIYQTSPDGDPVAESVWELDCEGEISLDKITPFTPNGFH
σ1 receptor, sequence (Q99720 whole entry): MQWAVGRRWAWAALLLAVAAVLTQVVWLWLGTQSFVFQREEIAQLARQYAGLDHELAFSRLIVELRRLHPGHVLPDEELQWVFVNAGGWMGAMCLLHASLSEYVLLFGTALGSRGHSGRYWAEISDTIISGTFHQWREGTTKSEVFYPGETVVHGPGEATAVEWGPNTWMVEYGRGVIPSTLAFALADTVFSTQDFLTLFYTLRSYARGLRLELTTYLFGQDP
dopamine D2 receptor, sequence (P14416 whole entry, species assumed): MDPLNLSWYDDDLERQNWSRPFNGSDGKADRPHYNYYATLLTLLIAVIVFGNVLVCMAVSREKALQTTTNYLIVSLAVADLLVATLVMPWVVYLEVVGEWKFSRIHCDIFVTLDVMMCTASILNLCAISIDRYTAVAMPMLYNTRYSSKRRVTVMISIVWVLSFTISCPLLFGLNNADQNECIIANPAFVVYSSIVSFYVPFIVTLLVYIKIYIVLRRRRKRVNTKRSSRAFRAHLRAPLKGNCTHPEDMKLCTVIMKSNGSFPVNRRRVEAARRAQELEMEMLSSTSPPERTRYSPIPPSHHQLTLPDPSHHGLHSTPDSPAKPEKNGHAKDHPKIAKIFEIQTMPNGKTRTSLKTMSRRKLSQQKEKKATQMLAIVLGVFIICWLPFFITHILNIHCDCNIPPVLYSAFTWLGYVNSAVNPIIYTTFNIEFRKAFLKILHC
dopamine D3 receptor, sequence (P35462 whole entry, species assumed): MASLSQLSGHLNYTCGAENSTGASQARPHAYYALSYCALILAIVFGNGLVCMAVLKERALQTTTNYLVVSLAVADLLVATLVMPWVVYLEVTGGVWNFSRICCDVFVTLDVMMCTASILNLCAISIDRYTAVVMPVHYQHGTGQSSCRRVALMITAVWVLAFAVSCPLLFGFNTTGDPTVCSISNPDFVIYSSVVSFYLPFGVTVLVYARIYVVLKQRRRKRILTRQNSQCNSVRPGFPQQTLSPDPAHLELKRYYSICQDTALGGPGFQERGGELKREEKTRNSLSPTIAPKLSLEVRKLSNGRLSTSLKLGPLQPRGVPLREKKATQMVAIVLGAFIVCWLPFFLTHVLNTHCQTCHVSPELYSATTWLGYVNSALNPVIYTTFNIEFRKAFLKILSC

Structure (SMILES): N#Cc1cc(CN2CCC(Nc3ncnc4sc(Cl)cc34)CC2)ccc1F [compound A, 5-((4-(6-Chlorothieno[2,3-d]pyrimidin-4-ylamino)piperidin-1-yl)methyl)-2-fluorobenzonitrile]
- degree of periportal fibrosis ([1]; monocrotaline + 50 mg/kg): minimal to mild fibrosis
- livers with periportal fibrosis ([1]; monocrotaline + 50 mg/kg, 4 out of 8 livers): 50%
- degree of periportal fibrosis ([1]; monocrotaline + 100 mg/kg): negligible-very minimal (1 small triad) fibrosis
- livers with periportal fibrosis ([1]; monocrotaline + 100 mg/kg, 1 out of 13 livers): 7%
- Ki [2]: > 1000 nM
- EC50 (σ receptors): ~10000 nM
- Ki (σ1 receptor): 100 nM
- Ki (dopamine D5 receptor): > 5000 nM
- Caspase activity (fold-change relative to the untreated control) [3]: increased Caspase activity in a time-dependent fashion
- Ki (dopamine D1 receptor): > 5000 nM
- differences in receptor affinities compared with all other 5-HT receptor subtypes [4]: more than 500 fold
- apoptosis ([5]; 1 μM): 20%
- apoptosis ([5]; 100 μM): 60%
- IC50 (dopamine D2 receptor): 670 nM
- cells apoptotic [6]: 40%
- lung lesion score versus Vehicle+MCT group ([7]; 50 mg/kg + MCT, p=0.09): lower lesion score
- lung lesion score versus Vehicle+MCT group ([7]; 100 mg/kg + MCT, p<0.01, similar to Vehicle+PBS group): reduced in severity
- MCT-induced pulmonary lesion, histology (FIG. 11) ([7]; MCT + 50 mg/kg, Part B): improvement of MCT-induced pulmonary lesion
- MCT-induced pulmonary lesions, histology (FIG. 11) ([7]; MCT + 100 mg/kg, Part C, compared to Part B): further reduction of MCT-induced pulmonary lesions
- Ki (dopamine D3 receptor): ~310 nM
- Ki (σ2 receptor): 110 nM
- liver lesion severity score compared to Vehicle+PBS control ([8]; 50 mg/kg + MCT): significant increase
- liver lesion severity score compared to Vehicle+PBS control ([8]; 100 mg/kg + MCT): significant increase
- periportal necrosis, histology (FIG. 11) ([8]; MCT + 50 mg/kg, Part B compared to Part A (vehicle + MCT)): slightly reduced
- periportal necrosis, histology (FIG. 11) ([8]; MCT + 100 mg/kg, Part C): further reduction of periportal necrosis
- sinusoidal cells with small, condensed nuclei (may represent apoptotic stellate cells) ([8]; groups receiving 50 mg/kg and 100 mg/kg): Moderate numbers
